# Measured values reported in ChEMBL document CHEMBL3885861, “Open TG-GATES”.
# Species on record: Rattus norvegicus
# Assay: Open TG-GATES - Regimen: Daily Repeat
# Format: toxicity, organism-based, Sprague-Dawley
# Parameters: regimen Daily Repeat, gender Male, age 6 weeks
# Details: in vivo, po, 50 mg/kg, route gavage, dose level High; for APTT / Bas / Eos / Fbg / Hb / Ht / Lym / MCH / MCHC / MCV / Mono / Neu / PT / Plat / RBC / Ret / WBC: tissue Blood; for LIVER: tissue Liver; for A/G / ALP / ALT / AST / BUN / CRE / Ca / Cl / DBIL / GLC / IP / K / LDH / Na / PL / RALB / TBIL / TC / TG / TP / gamma-GTP: tissue Plasma
smiles,measurement,setting,value
C=C(C)[C@H]1Cc2c(ccc3c2O[C@@H]2COc4cc(OC)c(OC)cc4[C@@H]2C3=O)O1 [ROTENONE],TERMINAL_BW,"72 h, time 3 day",199.2 g
same,APTT,"72 h, time 3 day",16.3 s
same,Bas,"72 h, time 3 day",0%
same,Eos,"72 h, time 3 day",0.8%
same,Fbg,"72 h, time 3 day",198.6 mg/dL
same,Hb,"72 h, time 3 day",13.7 g/dL
same,Ht,"72 h, time 3 day",41.6%
same,Lym,"72 h, time 3 day",72.4%
same,MCH,"72 h, time 3 day",21 pg
same,MCHC,"72 h, time 3 day",32.9%
same,MCV,"72 h, time 3 day",64 fL
same,Mono,"72 h, time 3 day",8%
same,Neu,"72 h, time 3 day",18.8%
same,PT,"72 h, time 3 day",12.2 s
same,Plat,"72 h, time 3 day",126.4 x10_4/uL
same,RBC,"72 h, time 3 day",649.4 x10_4/ul
same,Ret,"72 h, time 3 day",3.3%
same,WBC,"72 h, time 3 day",91.2 x10_2/uL
same,LIVER,"72 h, time 3 day",9.9 g
same,A/G,"72 h, time 3 day",2.4
same,ALP,"72 h, time 3 day",1100.4 IU/L
same,ALT,"72 h, time 3 day",25.4 IU/L
same,AST,"72 h, time 3 day",65.4 IU/L
same,BUN,"72 h, time 3 day",16 mg/dL
same,CRE,"72 h, time 3 day",0.4 mg/dL
same,Ca,"72 h, time 3 day",11.8 mg/dL
same,Cl,"72 h, time 3 day",106.6 meq/L
same,DBIL,"72 h, time 3 day",0.01 mg/dL
same,GLC,"72 h, time 3 day",191.2 mg/dL
same,IP,"72 h, time 3 day",7.5 mg/dL
same,K,"72 h, time 3 day",4.2 meq/L
same,LDH,"72 h, time 3 day",93.8 IU/L
same,Na,"72 h, time 3 day",142.8 meq/L
same,PL,"72 h, time 3 day",136.4 mg/dL
same,RALB,"72 h, time 3 day",3.9 g/dL
same,TBIL,"72 h, time 3 day",0.034 mg/dL
same,TC,"72 h, time 3 day",82.6 mg/dL
same,TG,"72 h, time 3 day",52.6 mg/dL
same,TP,"72 h, time 3 day",5.5 g/dL
same,gamma-GTP,"72 h, time 3 day",0.8 IU/L
same,TERMINAL_BW,"[…], time 7 day",230.8 g
same,TERMINAL_BW,"[…], time 14 day",251.7 g
same,TERMINAL_BW,"[…], time 28 day",288.8 g
same,APTT,"[…], time 7 day",16.5 s
same,Bas,"[…], time 7 day",0%
same,Eos,"[…], time 7 day",0.6%
same,Fbg,"[…], time 7 day",196.4 mg/dL
same,Hb,"[…], time 7 day",13.5 g/dL
same,Ht,"[…], time 7 day",41.1%
same,Lym,"[…], time 7 day",74.8%
same,MCH,"[…], time 7 day",21 pg
same,MCHC,"[…], time 7 day",32.9%
same,MCV,"[…], time 7 day",63.9 fL
same,Mono,"[…], time 7 day",6%
same,Neu,"[…], time 7 day",18.6%
same,PT,"[…], time 7 day",12 s
same,Plat,"[…], time 7 day",117.6 x10_4/uL
same,RBC,"[…], time 7 day",643.6 x10_4/ul
same,Ret,"[…], time 7 day",4.2%
same,WBC,"[…], time 7 day",95.8 x10_2/uL
same,APTT,"[…], time 14 day",16.5 s
same,Bas,"[…], time 14 day",0%
same,Eos,"[…], time 14 day",0.8%
same,Fbg,"[…], time 14 day",190.2 mg/dL
same,Hb,"[…], time 14 day",14.7 g/dL
same,Ht,"[…], time 14 day",44.3%
same,Lym,"[…], time 14 day",69.4%
same,MCH,"[…], time 14 day",20 pg
same,MCHC,"[…], time 14 day",33.1%
same,MCV,"[…], time 14 day",60.5 fL
same,Mono,"[…], time 14 day",7.4%
same,Neu,"[…], time 14 day",22.4%
same,PT,"[…], time 14 day",12.6 s
same,Plat,"[…], time 14 day",128.2 x10_4/uL
same,RBC,"[…], time 14 day",733.8 x10_4/ul
same,Ret,"[…], time 14 day",3.6%
same,WBC,"[…], time 14 day",98.4 x10_2/uL
same,APTT,"[…], time 28 day",19.4 s
same,Bas,"[…], time 28 day",0%
same,Eos,"[…], time 28 day",0.6%
same,Fbg,"[…], time 28 day",163.2 mg/dL
same,Hb,"[…], time 28 day",16 g/dL
same,Ht,"[…], time 28 day",48.6%
same,Lym,"[…], time 28 day",80%
same,MCH,"[…], time 28 day",18.8 pg
same,MCHC,"[…], time 28 day",33%
same,MCV,"[…], time 28 day",56.9 fL
same,Mono,"[…], time 28 day",4.2%
same,Neu,"[…], time 28 day",15%
same,PT,"[…], time 28 day",14.2 s
same,Plat,"[…], time 28 day",117.8 x10_4/uL
same,RBC,"[…], time 28 day",859 x10_4/ul
same,Ret,"[…], time 28 day",1.5%
same,WBC,"[…], time 28 day",88.4 x10_2/uL
same,LIVER,"[…], time 7 day",12.9 g
same,LIVER,"[…], time 14 day",13.1 g
same,LIVER,"[…], time 28 day",12 g
same,A/G,"[…], time 7 day",2.2
same,ALP,"[…], time 7 day",1181.6 IU/L
same,ALT,"[…], time 7 day",26.2 IU/L
same,AST,"[…], time 7 day",65.8 IU/L
same,BUN,"[…], time 7 day",18 mg/dL
same,CRE,"[…], time 7 day",0.4 mg/dL
same,Ca,"[…], time 7 day",11.7 mg/dL
same,Cl,"[…], time 7 day",104 meq/L
same,DBIL,"[…], time 7 day",0.014 mg/dL
same,GLC,"[…], time 7 day",198.6 mg/dL
same,IP,"[…], time 7 day",6.4 mg/dL
same,K,"[…], time 7 day",4.2 meq/L
same,LDH,"[…], time 7 day",103.6 IU/L
same,Na,"[…], time 7 day",141 meq/L
same,PL,"[…], time 7 day",137.4 mg/dL
same,RALB,"[…], time 7 day",4 g/dL
same,TBIL,"[…], time 7 day",0.022 mg/dL
same,TC,"[…], time 7 day",73 mg/dL
same,TG,"[…], time 7 day",80 mg/dL
same,TP,"[…], time 7 day",5.8 g/dL
same,gamma-GTP,"[…], time 7 day",0.8 IU/L
same,A/G,"[…], time 14 day",2.4
same,ALP,"[…], time 14 day",1140.4 IU/L
same,ALT,"[…], time 14 day",43.2 IU/L
same,AST,"[…], time 14 day",101.8 IU/L
same,BUN,"[…], time 14 day",22.4 mg/dL
same,CRE,"[…], time 14 day",0.4 mg/dL
same,Ca,"[…], time 14 day",11.5 mg/dL
same,Cl,"[…], time 14 day",105.2 meq/L
same,DBIL,"[…], time 14 day",0.014 mg/dL
same,GLC,"[…], time 14 day",178.8 mg/dL
same,IP,"[…], time 14 day",7.4 mg/dL
same,K,"[…], time 14 day",4.3 meq/L
same,LDH,"[…], time 14 day",108.4 IU/L
same,Na,"[…], time 14 day",140.6 meq/L
same,PL,"[…], time 14 day",145.8 mg/dL
same,RALB,"[…], time 14 day",3.9 g/dL
same,TBIL,"[…], time 14 day",0.032 mg/dL
same,TC,"[…], time 14 day",68.4 mg/dL
same,TG,"[…], time 14 day",121.2 mg/dL
same,TP,"[…], time 14 day",5.6 g/dL
same,gamma-GTP,"[…], time 14 day",1 IU/L
same,A/G,"[…], time 28 day",2.2
same,ALP,"[…], time 28 day",639.6 IU/L
same,ALT,"[…], time 28 day",20.2 IU/L
same,AST,"[…], time 28 day",53 IU/L
same,BUN,"[…], time 28 day",20.8 mg/dL
same,CRE,"[…], time 28 day",0.4 mg/dL
same,Ca,"[…], time 28 day",10.6 mg/dL
same,Cl,"[…], time 28 day",107 meq/L
same,DBIL,"[…], time 28 day",0.01 mg/dL
same,GLC,"[…], time 28 day",188.2 mg/dL
same,IP,"[…], time 28 day",5.9 mg/dL
same,K,"[…], time 28 day",4.4 meq/L
same,LDH,"[…], time 28 day",79 IU/L
same,Na,"[…], time 28 day",142.8 meq/L
same,PL,"[…], time 28 day",122.4 mg/dL
same,RALB,"[…], time 28 day",3.9 g/dL
same,TBIL,"[…], time 28 day",0.038 mg/dL
same,TC,"[…], time 28 day",67.6 mg/dL
same,TG,"[…], time 28 day",65.2 mg/dL
same,TP,"[…], time 28 day",5.8 g/dL
same,gamma-GTP,"[…], time 28 day",1 IU/L
